# Reference: ChEMBL document CHEMBL3046969, “Synthesis, structure, and biological assay of cinnamic amides as potential EGFR kinase inhibitors” (Med Chem Res, 2013)
# Key:
# [1] = test system: MCF7; test: cells; type: functional, cell-based; conditions: Homo sapiens, MCF7, 48 h
# Description: Antiproliferative activity against Homo sapiens (human) MCF-7 cells overexpressing EGFR assessed as inhibition of cell survival after 48 hr by MTT assay
# [2] = target: Epidermal growth factor receptor (Homo sapiens, UniProt P00533); test: Inhibition of autophosphorylation of His6-tagged EGFR cytoplasmic domain (unknown origin) expressed in Sf9 cells by DELFIA time resolved fluorometry; type: cell-based
# Chain of Epidermal growth factor receptor (P00533 whole entry, the tested form may be a part): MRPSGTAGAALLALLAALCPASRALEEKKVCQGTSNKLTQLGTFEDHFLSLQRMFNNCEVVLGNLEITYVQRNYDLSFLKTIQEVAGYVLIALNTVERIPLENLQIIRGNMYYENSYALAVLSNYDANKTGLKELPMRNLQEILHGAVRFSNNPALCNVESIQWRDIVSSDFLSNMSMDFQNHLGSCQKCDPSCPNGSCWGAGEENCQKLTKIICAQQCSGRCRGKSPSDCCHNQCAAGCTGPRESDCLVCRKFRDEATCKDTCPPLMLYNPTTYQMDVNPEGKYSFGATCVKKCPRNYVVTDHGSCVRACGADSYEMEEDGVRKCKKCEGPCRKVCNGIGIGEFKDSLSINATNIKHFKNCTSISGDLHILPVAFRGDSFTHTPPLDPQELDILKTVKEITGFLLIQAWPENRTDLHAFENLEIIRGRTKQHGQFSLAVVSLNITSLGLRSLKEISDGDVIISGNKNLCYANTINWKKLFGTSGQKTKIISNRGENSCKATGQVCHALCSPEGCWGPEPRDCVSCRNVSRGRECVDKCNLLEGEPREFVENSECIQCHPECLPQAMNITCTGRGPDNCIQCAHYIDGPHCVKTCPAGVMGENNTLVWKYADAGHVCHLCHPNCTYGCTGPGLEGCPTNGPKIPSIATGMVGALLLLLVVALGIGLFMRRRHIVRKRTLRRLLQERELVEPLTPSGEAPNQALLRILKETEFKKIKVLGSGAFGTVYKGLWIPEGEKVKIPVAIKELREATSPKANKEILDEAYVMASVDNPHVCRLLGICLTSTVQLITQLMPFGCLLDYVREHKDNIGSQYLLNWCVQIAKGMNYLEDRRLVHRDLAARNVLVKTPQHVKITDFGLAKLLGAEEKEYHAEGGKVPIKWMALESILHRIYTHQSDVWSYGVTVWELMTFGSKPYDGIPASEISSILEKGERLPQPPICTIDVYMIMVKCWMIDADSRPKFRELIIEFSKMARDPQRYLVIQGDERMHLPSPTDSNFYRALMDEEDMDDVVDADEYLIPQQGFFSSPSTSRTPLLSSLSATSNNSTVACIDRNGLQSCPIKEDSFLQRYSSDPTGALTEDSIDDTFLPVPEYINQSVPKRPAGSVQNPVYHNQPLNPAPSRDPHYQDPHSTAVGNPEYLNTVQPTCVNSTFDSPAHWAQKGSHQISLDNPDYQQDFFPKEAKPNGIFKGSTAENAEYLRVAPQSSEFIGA
SMILES,IC50 [1] [µM],IC50 [2] [µM]
O=C(/C=C/c1ccccc1)Nc1cc(Cl)cc(Cl)c1,4.47,13.9
O=C(/C=C/c1ccccc1)Nc1ccc(F)cc1F,4.14,11.7
Cc1cccc(NC(=O)/C=C/c2ccccc2)c1 [N-M-TOLYLCINNAMAMIDE],5.83,19.7
O=C(/C=C/c1ccccc1)Nc1ccc(Cl)cc1Cl,4,16.2
CCCCCCCCCCCCNC(=O)/C=C/c1ccccc1 [N-DODECYLCINNAMAMIDE],13.4,38.5
O=C(/C=C/c1ccccc1)Nc1cc(F)cc(F)c1,4.65,13.2
CC(C)c1ccc(NC(=O)/C=C/c2ccccc2)cc1,5.39,14.6
CC(C)(C)NC(=O)/C=C/c1ccccc1 [N-TERT-BUTYLCINNAMAMIDE],11.1,29.8
O=C(/C=C/c1ccccc1)Nc1ccccc1Br,4.05,15.7

# The next compounds have a lower IC50 [1] than those just listed; values first:
IC50 [1] [µM],IC50 [2] [µM],SMILES
3.3,10.2,CCOc1ccc(NC(=O)/C=C/c2ccccc2)cc1
3.26,12.7,Cc1ccc(NC(=O)/C=C/c2ccccc2)cc1 [N-P-TOLYLCINNAMAMIDE]
3.17,12.3,Cc1ccccc1NC(=O)/C=C/c1ccccc1 [N-O-TOLYLCINNAMAMIDE]
2.89,12.9,O=C(/C=C/c1ccccc1)Nc1cc(F)c(F)c(F)c1
2.43,9.35,CCOc1ccccc1NC(=O)/C=C/c1ccccc1
0.22,–,C#Cc1cccc(Nc2ncnc3cc(OCCOC)c(OCCOC)cc23)c1 [ERLOTINIB]
